According to patent US8729286B2, “Platinum compounds as treatment for cancers, and related methods, kits, and compositions” (Massachusetts Institute of Technology, priority 2012, dated 2014):
“Also recorded” adds a separate entry of the source.

How the values were obtained:
[1] = tested on: HeLa (human cervical cancer); assay: MTT cytotoxicity assay, HeLa; assay type: cell-based; settings: continuous 72 h
Procedure: (§1) The cells were treated for a continuous 72 h period. The resulting 50% growth inhibitory concentration (IC50) values are summarized in Table 4 and graphically depicted in FIG. 5.
(§2) HeLa (human cervical cancer), A549 (human lung cancer), U2OS (osteosarcoma), MCF-7 (human breast cancer) cells were grown as adherent monolayers in growth medium consisting of Dulbecco's Modified Eagle Medium (DMEM) supplemented with 10% fetal bovine serum (FBS) and 1% penicillin/streptomycin. The cultures were grown in 25 cm^2 flasks in an incubator at 37° C. with a humidified atmosphere composed of 5% CO2.
(§3) Trypsinized cells were seeded into a 96-well plate at a cell density of 2000 cells/well in 200 μL of growth medium and incubated for 24 h. The medium was then removed and 200 μL new growth medium containing various concentrations of the platinum complexes was added. After 72 h, the medium was removed, 200 μL of a 0.8 mg/mL solution of MTT in DMEM was added, and the plate was incubated further for 4 h. The DMEM/MTT mixture was aspirated and 200 μL of DMSO with 10% pH 10.5 glycine buffer was added to dissolve the resulting purple formazan crystals. The absorbance of the plates was read at 555 nm. Absorbance values were normalized to the platinum-free control wells and plotted as [Pt] versus % viability. IC50 values were interpolated from the resulting curves. The reported IC50 values are the averages from at least three independent experiments, which each consisted of six replicates per concentration level.

HeLa cells = assay: Cellular uptake in HeLa cells by GFAAS; assay type: cell-based, human; settings: 10 μM, 4 h exposure
Procedure: The cellular uptake scales with the lipophilicity of the compound in an exponential fashion (FIG. 6). The most lipophilic complex, 5, is taken up to the largest extent (520±80 ng Pt/10^6 cells), whereas the least lipophilic complex is taken up to the least extent (6±2 ng Pt/10^6 cells).
The total platinum uptake per cell was determined using slight modifications of a previously described protocol. In two 6-well plates, 3×10^5 cells per well were seeded in 3 wells with 2.5 mL of growth medium. In one of the plates, the additional 3 wells were filled with 2.5 mL of growth medium to act as blanks for non-specific platinum adsorption on the surface of the well. After incubating for 48 h, each well in the plate containing both cells and cell-free medium was treated with 0.278 mL of a 100-μM solution of the desired compound to give an exposure concentration of 10 μM. The cells and cell-free blanks were incubated with the Pt complex for 4 h. Meanwhile, the cells in the other plate were counted with trypan blue after detachment with trypsin in order to obtain the number of cells per well. After the 4 h incubation period, the growth medium was aspirated and all six wells were washed twice with 3 mL of pH 7.4 PBS and then treated with exactly 0.5 mL of hot (≈90° C.) concentrated nitric acid for 2 h. This nitric acid was analyzed by GFAAS to determine the total Pt content per well. The amount of Pt per cell was calculated by subtracting the average amount of Pt found in the blank wells from the average amount of Pt found in the cell-containing wells and normalizing to the average number of cells per well.

A549 (human lung cancer) = assay: MTT cytotoxicity assay, A549; assay type: cell-based; settings: continuous 72 h
Procedure: as §1, §2, §3

[2] = tested on: MCF-7 (human breast cancer); assay: MTT cytotoxicity assay, MCF-7; assay type: cell-based; settings: continuous 72 h
Procedure: as §1, §2, §3

[3] = tested on: U2OS (human osteosarcoma); assay: MTT cytotoxicity assay, U2OS; assay type: cell-based; settings: continuous 72 h
Procedure: as §1, §2, §3

[4] = tested on: nuclear DNA of HeLa cells; assay: Intracellular DNA platination in HeLa cells by GFAAS; assay type: cell-based, human; settings: 100 μM for 4 h, then 16 h platinum-free medium
Procedure: Because platinum-based drugs exert their cytotoxic effects by the formation of DNA cross-links, the extent to which 1-5 bind to intracellular DNA was measured. Cells were treated with 100 μM of the platinum complexes for 4 h and then incubated for an additional 16 h in platinum-free growth medium. The nuclear DNA was isolated, and the quantity of bound platinum was measured by GFAAS.
Five million HeLa cells were seeded in a 100 mm Petri dish containing 9 mL of growth medium. On the following day, the cells were treated with the platinum complex at 100 μM concentration for 4 h. The growth medium was then replaced with platinum-free medium, and the cells were incubated for an additional 16 h. Cells, both floating and attached, were collected and combined. Trypsin (2 mL) was used to detach the cells. The combined cells were centrifuged for 5 min at 4° C., and the resulting cell pellet was washed twice with 3 mL of ice-cold PBS. DNAzol (1 mL, genomic DNA isolation reagent, MRC), containing 100 μg/mL RNase A, was used to lyse the cell pellet. DNA was precipitated with 0.5 mL of absolute ethanol, washed 2 times with 75% ethanol (0.75 mL), and redissolved in 200 μL of 8 mM NaOH. The DNA concentration was determined by UV-visible spectroscopy, and platinum was quantified by GFAAS. The reported values are the average of at least three independent experiments with the error reported as the standard deviation.

[5] = Solution stability in pH 7.4 PBS at 37° C. by NMR spectroscopy; assay type: physicochemical; settings: for stability in pH 7.4 PBS (1H NMR spectra): up to 25 days; for half-life of decomposition in pH 7.4 PBS: NMR, first-order fit
Procedure: (§4) The stabilities of 1-5 in water and pH 7.4 phosphate buffered saline (PBS) at 37° C. were determined by NMR spectroscopy. […] Over the course of this reaction, the pH changed from 7.5 to 6.3. For 4, the rate of decomposition was quicker. […] The pH of this solution remained at 7.5 for the duration of the experiment.
In pH 7.4 PBS, the rates of decomposition increased. The half-lives of 2 and 4 in this medium were 3.4 and 1.8 days, respectively. For 4, the final product was the same as that observed in the aquation in non-buffered water characterized by a ^19F NMR chemical shift at −76.6 ppm. […] Although the major final product was the same as that observed for the aquation in pure water (^1H δ=2.22 ppm), two other minor products were observed by ^1H NMR spectroscopy with CH3 proton resonances at 1.91 and 1.56 ppm.
(§5) The platinum complexes were dissolved in water or pH 7.4 PBS containing 10% D2O to a typical concentration of 1 mM. The solutions were transferred to NMR tubes and incubated in a 37° C. water bath. ^1H and ^19F NMR spectra were obtained at various type points during the incubation. A small amount of 1,4-dioxane (δ=3.75 ppm) was included in the samples as an internal standard for referencing the ^1H NMR spectra and a sealed capillary containing aqueous KF (δ=−120.46 ppm) was used for referencing ^19F NMR spectra. The methyl group of 2 in the ^1H NMR spectra was integrated relative to the 1,4-dioxane reference at different time points and used for kinetic analyses. The trifluoromethyl group of 4 in the ^19F NMR spectra was integrated relative to the KF standard at different time points and used for kinetic analyses. Under the assumption of first-order kinetics, approximate half-lives were determined by fitting a line to a plot of ln [Pt] versus time and using the integrated first-order rate law, ln [Pt]=−kt+[Pt]o and the relationship, t1/2=ln 2/k, where [Pt]c, is the starting concentration of complex, k is the pseudo first-order rate constant, t is time, and t1/2 is the half-life. Water suppression for ^1H NMR spectra was accomplished with presaturation. The pH of the solutions was measured at the beginning and end of the desired incubation time using a DG-111-SG glass electrode calibrated with standard buffers.

[6] = Solution stability in water at 37° C. by NMR spectroscopy; assay type: physicochemical; settings: for stability in water (1H NMR spectra): up to 25 days; for half-life of decomposition in water: NMR, first-order fit
Procedure: as §4, §5

[7] = up 60 days; cited from earlier work
Solubility observations = assay type: physicochemical; settings: for solubility in water: water (cold water wash)
[8] = tested on: HeLa, A549, U2OS, and MCF-7 cell lines; assay: MTT cytotoxicity assay, summary over the four cell lines; assay type: cell-based, human; settings: 72 h, mean of HeLa, read-out: average IC50 value in the four cell lines tested
Procedure: as §1, §2
as §3, with “The reported IC50 values are the averages from at least three independent experiments, which each consisted of six replicates per concentration level.” left out

[9] = tested on: central nervous system (CNS) cancer cell lines; assay: NCI-60 tumor cell panel screen, CNS cancer cell lines; assay type: cell-based; settings: 10 μM single dose, 48 h, SRB assay
Procedure: (§6) Compound 4 was submitted to the NCI in July 2011 for single-dose testing in the NCI-60 tumor cell screen. These tests were carried out by the NCI using their established protocols.

[10] = tested on: NCI-60 tumor cell panel (60 cell lines); assay: NCI-60 tumor cell panel screen, single dose; assay type: cell-based; settings: 10 μM single dose, 48 h, SRB assay, relative to complex-free control
Procedure: as §6

HeLa Cellular Uptake (HeLa cells) | solubility in aqueous and organic solvent (Solubility observations; aqueous and organic solvent) | half-life of decomposition in pH 7.4 PBS [5] | half-life of decomposition in water [6] | solubility in water (Solubility observations) | Structure (SMILES) | IC50 [1] | IC50 (A549 (human lung cancer)) | IC50 [2] | IC50 [3] | Pt/DNA [4] | stability in pH 7.4 PBS (1H NMR spectra) [5] | stability in water (1H NMR spectra) [6] | decomposition in water [7] | DNA platination [4] | IC50 [8] | average cell growth in CNS cancer cell lines [9] | average cell growth percentage of the 60 cell lines [10]
520±80 ng Pt/10^6 cells | – | – | – | – | O=[N+]([O-])[O-].[NH3+][Pt-2]1([NH3+])[O]C(c2ccccc2)=CC(c2ccccc2)=[O+]1 (stereo not shown) [Compound 5, [Pt(dbm)(NH3)2](NO3)] | 6.7 ± 0.7 µM | 1.3 ± 0.3 µM | 3.1 ± 0.5 µM | 2.7 ± 0.7 µM | 23 ± 10 pmol/µg | no changes; also recorded: no sign of decomposition | no changes; also recorded: no sign of decomposition | – | – | – | – | –
6 ± 2 ng Pt/10^6 cells | – | – | – | – | CC1=CC(C)=[O+][Pt-2]([NH3+])([NH3+])[O]1.CC1=CC(C)=[O+][Pt-2]([NH3+])([NH3+])[O]1.O=S(=O)([O-])[O-] (stereo not shown) [Compound 1, [Pt(acac)(NH3)2](SO4)0.5] | 32 ± 5 µM | 28 ± 9 µM | 76 ± 2 µM | 24 ± 2 µM | 0.063 ± 0.012 pmol/µg | no changes; also recorded: no sign of decomposition | no changes; also recorded: no sign of decomposition | – | – | – | – | –
– | – | – | – | – | N.N.O=C([O-])C1(C(=O)[O-])CCC1.[Pt+2] [carboplatin] | – | – | – | – | – | – | – | no decomposition | – | – | – | –
29 ± 9 ng Pt/10^6 cells | low solubility | 3.4 days | 58 days | – | CC1=CC(C(F)(F)F)=[O+][Pt-2]([NH3+])([NH3+])[O]1.CC1=CC(C(F)(F)F)=[O+][Pt-2]([NH3+])([NH3+])[O]1.O=S(=O)([O-])[O-] (stereo not shown) [Compound 2, [Pt(tfac)(NH3)2](SO4)0.5] | 2.9 ± 0.7 µM | 2.2 ± 0.6 µM | 15 µM | 4.1 ± 0.8 µM | 0.30 ± 0.07 pmol/µg | – | – | – | ≈ 0.3 pmol Pt/μg DNA | – | – | –
160 ± 20 ng Pt/10^6 cells | – | 1.8 days | 29 days | only sparingly soluble in water | O=[N+]([O-])[O-].[NH3+][Pt-2]1([NH3+])[O]C(C(F)(F)F)=CC(c2ccccc2)=[O+]1 (stereo not shown) [Compound 4, [Pt(tfbz)(NH3)2](NO3)] | 3 ± 1 µM | 1.3 ± 0.2 µM | 4.3 ± 0.3 µM | 1.6 ± 0.5 µM | 14 ± 3 pmol/µg | – | – | – | – | 2.6 µM | 64.52% | 89.65%
83 ± 8 ng Pt/10^6 cells | – | – | – | only sparingly soluble in water | CC1=CC(c2ccccc2)=[O+][Pt-2]([NH3+])([NH3+])[O]1.O=[N+]([O-])[O-] (stereo not shown) [Compound 3, [Pt(bzac)(NH3)2](NO3)] | 24 ± 4 µM | 7 ± 2 µM | 33 ± 6 µM | 8 ± 2 µM | 0.35 ± 0.24 pmol/µg | no changes; also recorded: no sign of decomposition | no changes; also recorded: no sign of decomposition | – | ≈ 0.3 pmol Pt/μg DNA | – | – | –

Structure (SMILES) | HeLa Cellular Uptake (HeLa cells) | solubility in aqueous and organic solvent (Solubility observations; aqueous and organic solvent) | half-life of decomposition in pH 7.4 PBS [5] | half-life of decomposition in water [6] | solubility in water (Solubility observations) | IC50 [1] | IC50 (A549 (human lung cancer)) | IC50 [2] | IC50 [3] | Pt/DNA [4] | stability in pH 7.4 PBS (1H NMR spectra) [5] | stability in water (1H NMR spectra) [6] | decomposition in water [7] | DNA platination [4] | IC50 [8] | average cell growth in CNS cancer cell lines [9] | average cell growth percentage of the 60 cell lines [10]
N.N.[Cl][Pt][Cl] [cisplatin, cis-diamminedichloroplatinum(II), reference compound] | 14 ± 2 ng Pt/10^6 cells | – | – | – | – | 2.1 ± 0.1 µM | 3.2 ± 0.6 µM | 14 ± 3 µM | 5 ± 2 µM | 1.58 ± 0.97 pmol/µg | – | – | – | – | – | – | –
